Data from patent publication EP4759814A1, “TRICYCLIC COMPOUND AND USE THEREOF AS MAT2A INHIBITOR” (SK Biopharmaceuticals Co., Ltd., priority 2023, dated 2025).
pIC50: −log10 of the molar value.

target: T1, MAT2A (Homo sapiens, UniProt P31153); experiment: MAT2A inhibitory activity, colorimetric phosphate detection (PiColorLock) enzyme assay; assay type: biochemical; settings: Test Condition 1 or 2 (not stated which per compound); absorbance at 630 nm
T1 construct: purchased BPS Bioscience (USA) 71401
T1 sequence (P31153 whole entry): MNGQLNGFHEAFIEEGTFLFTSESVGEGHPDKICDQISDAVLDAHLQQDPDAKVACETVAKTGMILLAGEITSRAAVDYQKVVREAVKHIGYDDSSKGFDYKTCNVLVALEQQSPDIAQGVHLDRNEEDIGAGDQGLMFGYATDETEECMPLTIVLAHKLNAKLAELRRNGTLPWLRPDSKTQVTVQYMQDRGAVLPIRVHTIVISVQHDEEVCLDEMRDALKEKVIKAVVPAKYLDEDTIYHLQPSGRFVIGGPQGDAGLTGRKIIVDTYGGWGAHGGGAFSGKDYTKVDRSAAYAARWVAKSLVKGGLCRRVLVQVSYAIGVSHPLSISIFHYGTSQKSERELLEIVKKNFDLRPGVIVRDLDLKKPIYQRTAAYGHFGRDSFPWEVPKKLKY
Method: In vitro assay: Methionine and adenosine triphosphate (ATP) are converted into S-adenosylmethionine (SAM) and inorganic phosphate (pi) via the catalytic action of methionine adenosyltransferase 2A (MAT2A). The produced pi is detected by the PiColorLock™ Phosphate Detection Reagent, which is a colorimetric assay, and the activity of MAT2A can be evaluated according to the amount of pi generated during the enzyme reaction. Each compound was evaluated under Test Condition 1 or 2 as described below.
• Concentration of MAT2A inhibitor: maximum concentration of 50 µM, 5-fold dilution (7 groups in total) • MAT2A concentration: 12 ng/µL • ATP and Met concentration: 100 µM, 80 µM
• Concentration of MAT2A inhibitor: maximum concentration of 1 µM, 3-fold dilution (7 groups in total) • MAT2A concentration: 4 ng/µL • ATP and Met concentration: 300 µM, 150 µM • Reagents: Methionine (catalog number M5308) and ATP (catalog number A2383) were purchased from Sigma-Aldrich (USA). MAT2A (catalog number 71401) was purchased from BPS Bioscience (USA), and PiColorLock™ Phosphate Detection Reagent (catalog number 303-0030) was purchased from Novus (USA).
Assay buffer composition: 50 mM Tris-HCl pH 8.0, 50 mM KCI, 15 mM MgCl2, 0.3 mM EDTA, 0.005 % (w/v) BSA
Experimental procedure: Each compound was diluted 5-fold or 3-fold based on the maximum concentration (5 mM or 1 mM or 0.1 mM) using DMSO. The diluted compounds were diluted 20-fold using assay buffer, and then mixed at a volume ratio of 1:2 with MAT2A (30 ng/µL or 10 ng/µL) diluted with assay buffer and treated for 30 minutes at room temperature. The negative control group is a group untreated with both the MAT2A enzyme and the compound according to an embodiment of the present application, and the positive control group is a group treated only with the MAT2A enzyme and untreated with the compound according to an embodiment of the present application.
In each well of a 384-well plate, 30 µL of the mixed solution and 20 µL of a 1:1 mixed solution of ATP (0.5 mM or 1.5 mM) and Met (0.4 mM or 0.75 mM) were mixed and then treated for 1 hour at room temperature. After the enzyme reaction, 13 µL of a 100:1 mixed solution of PiColorLockTM and Accelerator was treated in each well and reacted for 5 minutes at room temperature. After treating 5 µL of Stabilizer in each well and reacting for 25 minutes at room temperature, the absorbance at 630 nm was measured using SpectraMax M4 (Molecular Devices, USA) to calculate the IC50 value of the compound.
Analysis method: The enzyme activity (%) of each experimental group was calculated as {(average O.D. of compound-treated group - average O.D. of negative control group)/(average O.D. of positive control group - average O.D. of negative control group)} * 100. After preparing a dose-response curve (4-parameter) using the enzyme activity according to the treatment concentration of each compound in GraphPad Prism 9, the 50 % of enzyme inhibitory activity value (IC50) was calculated through non-linear regression analysis. The IC50 results measured for the MAT2A activity inhibitory ability of the compounds according to an embodiment of the present application are shown in Table 2 (+++: more than 1 to 100 nM, ++: more than 100 to 1,000 nM, +: more than 1,000 to 10,000 nM, -: more than 10,000 nM).

Q: How did the pIC50 turn out when `Cc1ncccc1-n1c(=O)c2nccn2c2cc(Cl)c(Br)cc21` (atropisomer, axis not shown; (Ra)) [Example 80, (Ra)-7-bromo-8-chloro-5-(2-methylpyridin-3-yl)imidazo[1,2-a]quinoxalin-4(5H)-one] was run?
A: < 5.00

Q: With `Cc1cc2c(cc1C(F)(F)F)n(-c1cccnc1C)c(=O)c1nccn12` (atropisomer, axis not shown; (Ra)) [Example 94, (Ra)-8-methyl-5-(2-methylpyridin-3-yl)-7-(trifluoromethyl)imidazo[1,2-a]quinoxalin4(5H)-one] as the molecule, how does the pIC50 read?
A: < 5.00

Q: With `Cc1ncccc1-n1c(=O)c2nccn2c2cc(Cl)c(C(F)(F)F)cc21` (atropisomer, axis not shown; (Ra)) [Example 97, (Ra)-8-chloro-5-(2-methylpyridin-3-yl)-7-(trifluoromethyl)imidazo[1,2-a]quinoxalin-4(5H)-one] as the molecule, how does the pIC50 read?
A: < 5.00

Q: `CCc1ncccc1-n1c(=O)c2nccn2c2cc(Cl)c(C(F)(F)F)cc21` (atropisomer, axis not shown; (Ra)) [Example 111, (Ra)-8-chloro-5-(2-ethylpyridin-3-yl)-7-(trifluoromethyl)imidazo[1,2-a]quinoxalin-4(5H)-one] was tested. Which pIC50 did it give?
A: < 5.00

Q: `O=c1c2nccn2c2ccc(Cl)cc2n1-c1ccccc1F` [Example 12, 7-chloro-5-(2-fluorophenyl)imidazo[1,2-a]quinoxalin-4(5H)-one] was tested. Which pIC50 did it give?
A: < 5.00

Q: With `Cc1c(F)cccc1-n1c(=O)c2nccn2c2ccc(OCC(F)(F)F)cc21` [Example 29, 5-(3-fluoro-2-methylphenyl)-7-(2,2,2-trifluoroethoxy)imidazo[1,2-a]quinoxalin-4(5H)-one] as the molecule, how does the pIC50 read?
A: < 5.00

Q: How did the pIC50 turn out when `CCOc1ccc2c(c1)n(-c1cccc(F)c1C)c(=O)c1nccn12` [Example 31, 7-ethoxy-5-(3-fluoro-2-methylphenyl)imidazo[1,2-a]quinoxalin-4(5H)-one] was run?
A: < 5.00

Q: With `Cc1ccccc1-n1c(=O)c2nccn2c2ccc(F)cc21` [Example 41, 7-fluoro-5-(o-tolyl)imidazo[1,2-a]quinoxalin-4(5H)-one] as the molecule, how does the pIC50 read?
A: 5.00 to 6.00

Q: How did the pIC50 turn out when `Cc1ccccc1-n1c(=O)c2nccn2c2cnc(Cl)cc21` [Example 42, 3-chloro-5-(o-tolyl)imidazo[1,2-a]pyrido[4,3-e]pyrazin-6(5H)-one] was run?
A: < 5.00

Q: With `N#Cc1ccccc1-n1c(=O)c2nccn2c2ccc(Cl)cc21` [Example 43, 2-(7-chloro-4-oxoimidazo[1,2-a]quinoxalin-5(4H)-yl)benzonitrile] as the molecule, how does the pIC50 read?
A: < 5.00

Q: `CS(=O)(=O)Nc1cccc(-n2c(=O)c3nccn3c3ccc(Cl)cc32)c1` [Example 44, N-(3-(7-chloro-4-oxoimidazo[1,2-a]quinoxalin-5(4H)-yl)phenyl)methanesulfonamide] was tested. Which pIC50 did it give?
A: 7.00 to 9.00

Q: With `Cc1ccccc1-n1c(=O)c2nccn2c2ccc(C(C)C)nc21` [Example 47, 7-isopropyl-5-(o-tolyl)imidazo[1,2-a]pyrido[2,3-e]pyrazin-4(5H)-one] as the molecule, how does the pIC50 read?
A: < 5.00

Q: How did the pIC50 turn out when `Cc1nccnc1-n1c(=O)c2nccn2c2ccc(Cl)cc21` [Example 48, 7-chloro-5-(3-methylpyrazin-2-yl)imidazo[1,2-a]quinoxalin-4(5H)-one] was run?
A: 6.00 to 7.00

Q: With `O=c1c2nccn2c2ccc(Cl)cc2n1-c1ccccc1OC(F)(F)F` [Example 50, 7-chloro-5-(2-(trifluoromethoxy)phenyl)imidazo[1,2-a]quinoxalin-4(5H)-one] as the molecule, how does the pIC50 read?
A: 5.00 to 6.00

Q: `Cc1cccc(C)c1-n1c(=O)c2nccn2c2ccc(Cl)cc21` [Example 51, 7-chloro-5-(2,6-dimethylphenyl)imidazo[1,2-a]quinoxalin-4(5H)-one] was tested. Which pIC50 did it give?
A: < 5.00

Q: How did the pIC50 turn out when `Cc1cccnc1-n1c(=O)c2nccn2c2ccc(Cl)cc21` [Example 53, 7-chloro-5-(3-methylpyridin-2-yl)imidazo[1,2-a]quinoxalin-4(5H)-one] was run?
A: < 5.00

Q: `CC(=O)c1cnc2c(=O)n(-c3cccnc3C)c3cc(C(F)(F)F)ccc3n12` [Example 59, 1-acetyl-5-(2-methylpyridin-3-yl)-7-(trifluoromethyl)imidazo[1,2-a]quinoxalin-4(5H)-one] was tested. Which pIC50 did it give?
A: 5.00 to 6.00

Q: With `Cc1ncccc1-n1c(=O)c2nc(CN3CCN(C)CC3)cn2c2ccc(Cl)cc21` [Example 61, 7-chloro-2-((4-methylpiperazin-1-yl)methyl)-5-(2-methylpyridin-3-yl)imidazo[1,2-a]quinoxalin-4(5H)-one] as the molecule, how does the pIC50 read?
A: < 5.00

Q: With `Cc1ncccc1-n1c(=O)c2nc(CN3CCOCC3)cn2c2ccc(Cl)cc21` [Example 62, 7-chloro-5-(2-methylpyridin-3-yl)-2-(morpholinomethyl)imidazo[1,2-a]quinoxalin-4(5H)-one] as the molecule, how does the pIC50 read?
A: 6.00 to 7.00

Q: With `Cc1ncccc1-n1c(=O)c2nc(CN3CCC4(CC3)COC4)cn2c2ccc(Cl)cc21` [Example 63, 2-((2-oxa-7-azaspiro[3.5]nonane-7-yl)methyl)-7-chloro-5-(2-methylpyridin-3-yl)imidazo[1,2-a]quinoxalin-4(5H)-one] as the molecule, how does the pIC50 read?
A: < 5.00

Q: With `COCCNCc1cn2c(n1)c(=O)n(-c1cccnc1C)c1cc(Cl)ccc12` [Example 64, 7-chloro-2-(((2-methoxyethyl)amino)methyl)-5-(2-methylpyridin-3-yl)imidazo[1,2-a]quinoxalin-4(5H)-one] as the molecule, how does the pIC50 read?
A: 6.00 to 7.00

Q: With `Cc1ccccc1-n1c(=O)c2nccn2c2cc(Br)c(Cl)cc21` [Example 72, 8-bromo-7-chloro-5-(o-tolyl)imidazo[1,2-a]quinoxalin-4(5H)-one] as the molecule, how does the pIC50 read?
A: 5.00 to 6.00

Q: How did the pIC50 turn out when `Cc1ncccc1-n1c(=O)c2nccn2c2cc(C(F)(F)F)c(Br)cc21` [Example 76, 7-bromo-5-(2-methylpyridin-3-yl)-8-(trifluoromethyl)imidazo[1,2-a]quinoxalin-4(5H)-one] was run?
A: < 5.00

Q: `Cc1ncccc1-n1c(=O)c2nccn2c2cc(C(F)F)c(Br)cc21` [Example 82, 7-bromo-8-(difluoromethyl)-5-(2-methylpyridin-3-yl)imidazo[1,2-a]quinoxalin-4(5H)-one] was tested. Which pIC50 did it give?
A: < 5.00

Q: How did the pIC50 turn out when `Cn1nccc1-n1c(=O)c2nccn2c2cc(Cl)c(Br)cc21` [Example 83, 7-bromo-8-chloro-5-(1-methyl-1H-pyrazol-5-yl)imidazo[1,2-a]quinoxalin-4(5H)-one] was run?
A: 5.00 to 6.00

Q: `Cc1cc2c(cc1Br)n(-c1cccnc1O)c(=O)c1nccn12` [Example 90, 7-bromo-5-(2-hydroxypyridin-3-yl)-8-methylimidazo[1,2-a]quinoxalin-4(5H)-one] was tested. Which pIC50 did it give?
A: < 5.00

Q: How did the pIC50 turn out when `Cc1ncccc1-n1c(=O)c2nccn2c2c(N3CCCC3)cc(Cl)cc21` [Example 104, 7-chloro-5-(2-methylpyridin-3-yl)-9-(pyrrolidine-1-yl)imidazo[1,2-a]quinoxalin-4(5H)-one] was run?
A: < 5.00

Q: With `Cc1ncccc1-n1c(=O)c2nccn2c2c(N(C)C)cc(Cl)cc21` [Example 106, 7-chloro-9-(dimethylamino)-5-(2-methylpyridin-3-yl)imidazo[1,2-a]quinoxalin-4(5H)-one] as the molecule, how does the pIC50 read?
A: < 5.00

Q: How did the pIC50 turn out when `Cc1ncccc1-n1c(=O)c2nccn2c2c(OC(F)F)cc(C(F)(F)F)cc21` [Example 115, 9-(difluoromethoxy)-5-(2-methylpyridin-3-yl)-7-(trifluoromethyl)imidazo[1,2-a]quinoxalin-4(5H)-one] was run?
A: 6.00 to 7.00

Q: How did the pIC50 turn out when `Cc1ncccc1-n1c(=O)c2nccn2c2c(OCC(F)(F)F)cc(C(F)(F)F)cc21` [Example 117, 5-(2-methylpyridin-3-yl)-9-(2,2,2-trifluoroethoxy)-7-(trifluoromethyl)imidazo[1,2-a]quinoxalin-4(5H)-one] was run?
A: 7.00 to 9.00

Q: With `CCOc1cc(C(F)(F)F)cc2c1n1ccnc1c(=O)n2-c1cccnc1C` [Example 118, 9-ethoxy-5-(2-methylpyridin-3-yl)-7-(trifluoromethyl)imidazo[1,2-a]quinoxalin-4(5H)-one] as the molecule, how does the pIC50 read?
A: 7.00 to 9.00
